{
  "source": "paper PMC9227096",
  "about": "“Design, Synthesis, and In Vitro, In Silico and In Cellulo Evaluation of New Pyrimidine and Pyridine Amide and Carbamate Derivatives as Multi-Functional Cholinesterase Inhibitors” (Pharmaceuticals, 2022)",
  "key": {"[1]": {"molecular_target": "T1, Aβ42 peptide (Homo sapiens, UniProt P05067)", "T1 construct": "expressed in transfected cells; host or cells: E. coli BL21 (DE3), pET28a vector", "T1 sequence (P05067 672-713 limits assumed)": "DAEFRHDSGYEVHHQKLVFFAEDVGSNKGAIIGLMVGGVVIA", "assay": "Inhibition of Aβ42 aggregation in intact E. coli cells, thioflavin-S staining", "assay_type": "cell-based, Escherichia coli", "conditions": "[I] = 100 µM, E. coli cells overexpressing Aβ42", "protocol": "(§1) For compounds 12, 14 and 18, the inhibitory activity against Aβ42 and tau aggregation was evaluated. The anti-aggregating effect of tested compounds was monitored by a cell-based assay in intact Escherichia coli cells that overexpress either Aβ42 peptide or tau protein, which, upon expression, form insoluble inclusion bodies that were stained with thioflavin-S [42]. The percentages of inhibition towards Aβ42 and tau aggregation were determined at an inhibitor concentration of 100 µM and the obtained results are reported in Table 6. In general, these compounds show a weak anti-aggregating activity; among these, the pyridine carbamate 18 is the best inhibitor of aggregation of both Aβ42 and tau.\nE. coli competent cells BL21 (DE3) were transformed with the pET28a vector (Novagen, Inc., Madison, WI, USA) carrying the DNA sequence of Aβ42. Because of the addition of the initiation codon ATG in front of both genes, the overexpressed peptide contains an additional methionine residue at its N terminus. For overnight culture preparation, an amount of 10 mL of the M9 minimal medium containing 50 μg·mL^−1 of kanamycin was inoculated with a colony of BL21 (DE3) bearing the plasmid to be expressed at 37 °C. […]\n(§2) Th-S (T1892) and other chemical reagents were purchased from Sigma (St. Louis, MO, USA). […] Th-S fluorescence and absorbance were tracked using a DTX 800 plate reader Multimode Detector equipped with a Multimode Analysis Software (Beckman-Coulter, Indianapolis, IN, USA). […] A filter of 535/25 nm was also used for the absorbance determination. To normalize the Th-S fluorescence as a function of the bacterial concentration, OD600 was obtained using a Shimadzu UV-2401 PC UV–Vis spectrophotometer (Shimadzu, Japan). Note that the fluorescence normalisation was carried out considering 100% of the Th-S fluorescence of the bacterial cells expressing the peptide or protein in the absence of the drug and 0% of the Th-S fluorescence of the bacterial cells not expressing the peptide or protein. […]"}, "[2]": {"molecular_target": "T2, tau protein (Homo sapiens, UniProt P10636)", "T2 construct": "expressed in transfected cells; host or cells: E. coli BL21 (DE3) with pTARA (T7 RNA polymerase under PBAD) and pRKT42", "T2 sequence (P10636 1-441 isoform P10636-8)": "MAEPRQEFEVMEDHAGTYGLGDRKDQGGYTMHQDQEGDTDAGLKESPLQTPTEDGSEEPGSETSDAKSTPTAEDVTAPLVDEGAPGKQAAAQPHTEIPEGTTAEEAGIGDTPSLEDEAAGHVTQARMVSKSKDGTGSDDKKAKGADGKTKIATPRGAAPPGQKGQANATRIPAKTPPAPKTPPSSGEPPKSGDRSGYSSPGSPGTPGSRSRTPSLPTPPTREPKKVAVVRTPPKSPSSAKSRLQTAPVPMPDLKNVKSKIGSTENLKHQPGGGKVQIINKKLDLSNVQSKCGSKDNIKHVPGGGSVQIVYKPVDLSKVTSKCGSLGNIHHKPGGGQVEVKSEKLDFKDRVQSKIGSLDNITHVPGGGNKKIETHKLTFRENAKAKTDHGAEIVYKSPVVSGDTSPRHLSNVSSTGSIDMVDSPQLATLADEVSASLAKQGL", "assay": "Inhibition of tau aggregation in intact E. coli cells, thioflavin-S staining", "assay_type": "cell-based, Escherichia coli", "conditions": "[I] = 100 µM, E. coli cells overexpressing tau", "protocol": "as §1\nE. coli BL21 (DE3) competent cells were transformed with pTARA containing the RNA-polymerase gene of T7 phage (T7RP), under the control of the promoter PBAD. E. coli BL21 (DE3), with pTARA competent cells, were transformed with the pRKT42 vector encoding four repeats of the tau protein in two inserts. For overnight culture preparation, 10 mL of the M9 medium containing 0.5% of glucose, 50 μg·mL^−1 of ampicillin, and 12.5 μg·mL^−1 of chloramphenicol was inoculated with a colony of BL21 (DE3) bearing the plasmids to be expressed at 37 °C. […]\nas §2"}},
  "data": [
    {"smiles": "O=C(NCCCCCCNc1ccccn1)c1ccccc1", "note": "[Compound 12, N-(6-(pyridin-2-ylamino)hexyl)benzamide]", "values": [
      {"measurement": "inhibition at 100 µM", "setting": "[1]", "result": 11.9, "unit": "%"},
      {"measurement": "inhibition at 100 µM", "setting": "[2]", "result": 11, "unit": "%"}
    ]},
    {"smiles": "O=C(Cc1ccc(Oc2ccccc2)cc1)NCCCCCCNc1ccccn1", "note": "[Compound 14, 2-(4-phenoxyphenyl)-N-(6-(pyridin-2-ylamino)hexyl)acetamide]", "values": [
      {"measurement": "inhibition at 100 µM", "setting": "[1]", "result": 13.3, "unit": "%"},
      {"measurement": "inhibition at 100 µM", "setting": "[2]", "result": 10.9, "unit": "%"}
    ]},
    {"smiles": "O=C(NCCCCCCNc1ccccn1)Oc1ccccc1", "note": "[Compound 18, Phenyl (6-(pyridin-2-ylamino)hexyl)carbamate]", "values": [
      {"measurement": "inhibition at 100 µM", "setting": "[1]", "result": 23.1, "unit": "%"},
      {"measurement": "inhibition at 100 µM", "setting": "[2]", "result": 15.7, "unit": "%"}
    ]}
  ]
}
